Laboratory results reported in US5459257A, “Sulfated oligoglycoside acylate and antiviral agent containing the same as active ingredient” (priority 1993, dated 1995).

Columns and labels:
rabbit blood = assay: effects on blood clotting, whole blood clotting time; details: for clotting time: rabbit whole blood
Description: Sodium heparin (Kodama) used as positive control was diluted with saline at the concentration of 120 U/ml.
Japan White rabbits (supplier: Kitayama Labes), 4 months old, were used for this study.
Cardiopuncture was performed in a rabbit, and at when blood was started to be flowed into the syringe, the timer was made to start. The whole blood collected was carefully flowed into double glass tubes incubated. After putting the samples calmly for 3 minutes, the first tube was tilted gently every 30 seconds and the current of blood was observed. When blood in the first tube was clotted, the same operation was performed in the second tube. When the blood was clotted in the second tube, the timer was stopped, and this end point was recorded as whole blood clotting time.

HIV [1] = assay: anti-HIV activity, inhibition of HIV-induced cytopathicity in MT-4 cells (MTT method); format: cell-based; details: for EC50: HIV-infected MT-4 cells, MOI 0.01, 5 days, 37° C.; for S.I. (CC50/EC50): MT-4 cells, ratio of CC50 to EC50, 7200 min
Description: (§1) A test compound having various concentrations were placed in a 96-well microtiter plate along with HIV-infected MT-4 cells (2.5×10^4 /well, MOI (multiplicity of infection): 0.01) immediately after infection thereof. In order to ascertain the cytotoxicty of the test compound with respect to MT-4 cells, mock-infected (non-infected) cells were cultured in an identical manner along with the test compound of various concentrations. After incubating for 5 days at 37° C. in a CO2 atmosphere, the number of living cells were determined by using MTT method. The anti-HIV activity was evaluated with the method written by R. Pauwels, et al. (R. Pauwels, et al., J. Virol Methods, 20, 309 to 321 (1988)).
The anti-HIV activity is shown in terms of EC50 (50% effective concentration) that is the concentration of a compound which inhibits 50% of HIV-induced cytopathicity in MT-4 cells, and the cytotoxity is shown in terms of CC50 (cytotoxic concentration) that is the concentration of a compound which reduces 50% of viability of mock-infected MT-4 cells. Selectivity Index (S.I.) is expressed by the ratio of CC50 to EC50 (CC50 /EC50).

MT-4 cells = assay: cytotoxicity in mock-infected MT-4 cells (MTT method); format: cell-based
Description: as §1, with “method.” for “method. The anti-HIV activity was evaluated with the method written by R. Pauwels, et al. (R. Pauwels, et al., J. Virol Methods, 20, 309 to 321 (1988)).”
Selectivity Index (S.I.) is expressed by the ratio of CC50 to EC50 (CC50 /EC50).

HIV [2] = assay: anti-HIV activity of serum after intravenous administration to mice; format: in vivo; details: for reciprocal number of concentration of the compound at 50% cell viability: mouse serum, 32 mg/kg
Description: The effects of Compound 6 and dextran sulfate in vivo experiment were studied by duration of the activity using mouse.
Compound 6 were dissolved with saline at the concentration of 32 mg/10 ml. Dextran sulfate (Control compound: M.W=8000: Sigma) were dissolved with it at the concentration of 80 mg/10 ml.
Mouse (Crj:CD-1(ICR)) (supplier: Charles River Japan, Inc.), six weeks old were used for this study.
Four groups (for 1, 4, 6 and 12 hours) of mice (one group: three mice) were used for the in vivo experiments of the Compound 6.
The twelve mice were given an intravenous injection of the compound (in the tail vein; Dose 32 mg/kg).
Three groups (for 20, 40 and 60 minutes) of mice (one group: two mice) were used for dextran sulfate such a method as described in Compound 6 (Dose 80 mg/kg). At decided times after injection, the blood was collected and serum was separated by centrifugation at low speed.
The serum samples were stored at -80° C. until assayed. Each serum sample was diluted with culture medium to evaluate the effective concentration (the maximum concentration was set up to 10%). The method of this anti-HIV activity evaluation was the same one as described in EXAMPLE 49.
(*)Various concentration of the serum solutions (diluted with the medium
and the maximum concentration is 10%) were used for evaluation of the
shown. That is why the higher the reciprocal number, the higher the […]

[3] = mock-infected MT-4 cells, 5 days, 37° C.
[4] = mock-infected MT-4 cells, 5 days, 37° C., 7200 min

Substance | EC50 (HIV [1]) | S.I. (CC50/EC50) (HIV [1]) | CC50 (MT-4 cells; [3]) | CC50 (MT-4 cells; [4]) | other results
Heparin [reference compound] | – | – | – | – | clotting time (rabbit blood; 120 U/ml, positive control): > 60 min
Sulfated 4-n-heptylphenyl O-benzoyl-β-D-galactosyl-(1→4)-β-D-galactosyl-(1→4)-β-D-glucoside [Compound 18] | 14.5 µg/mL | 47 | 634 µg/mL | – | –
Sulfated 4-n-octyloxyphenyl O-4-fluorobenzoyl-β-D-laminaripentaoside [Compound 12] | 16.1 µg/mL | 33 | 530 µg/mL | – | –
Sulfated 4-n-octyloxyphenyl O-benzoyl-β-D-laminaripentaoside [Compound 11] | 4.7 µg/mL | 119 | 557 µg/mL | – | –
Sulfated 4-n-octyloxyphenyl O-octanoyl-β-D-laminaripentaoside [Compound 26] | 1.7 µg/mL | > 588 | > 1,000 μg/ml | – | –
Sulfated 4-n-octylphenyl O-4-fluorobenzoyl-β-D-laminaripentaoside [Compound 9] | 14.1 µg/mL | 35 | 496 µg/mL | – | –
Sulfated 4-n-octylphenyl O-benzoyl-β-D-laminaripentaoside [Compound 8] | 6.8 µg/mL | 82 | 556 µg/mL | – | –
Sulfated 4-t-octylphenyl O-benzoyl-β-D-galactosyl-(1→4)-β-D-galactosyl-(1→4)-β-D-glucoside [Compound 17] | 76.3 µg/mL | 6 | 484 µg/mL | – | –
Sulfated 4-t-octylphenyl O-benzoyl-β-D-laminaripentaoside [Compound 14] | 16.4 µg/mL | 119 | 557 µg/mL | – | –
Sulfated 4-t-octylphenyl O-n-octanoyl-β-D-laminaripentaoside [Compound 27] | 0.63 µg/mL | > 1,587 | – | – | CC50 (MT-4 cells; human, mt-4 cells, 120 h): > 1,000 μg/ml
Sulfated dl-α-tocopheryl O-2,4-difluorobenzoyl-β-D-galactosyl-(1→4)-β-D-galactosyl-(1→4)-β-D-glucoside [Compound 43] | 3.3 µg/mL | 195 | 644 µg/mL | – | –
Sulfated dl-α-tocopheryl O-benzoyl-β-D-laminaripentaoside [Compound 44] | 0.52 µg/mL | 1,317 | – | 685 µg/mL | –
Sulfated dl-α-tocopheryl O-benzoyl-β-D-laminaripentaoside [Compound 45] | 1.8 µg/mL | 357 | – | 642 µg/mL | –
Sulfated dl-α-tocopheryl O-benzoyl-β-D-laminaripentaoside [Compound 46] | 3.9 µg/mL | 41 | – | 160 µg/mL | –
Sulfated dl-α-tocopheryl O-n-butyryl-β-D-galactosyl-(1→4)-β-D-galactosyl-(1→4)-β-D-glucoside [Compound 41] | 5.4 µg/mL | 109 | – | 586 µg/mL | –
Sulfated dl-α-tocopheryl O-n-butyryl-β-D-galactosyl-(1→4)-β-D-galactosyl-(1→4)-β-D-glucoside [Compound 42] | 3.6 µg/mL | 174 | 627 µg/mL | – | –
Sulfated dl-α-tocopheryl O-n-butyryl-β-D-laminaripentaoside [Compound 30] | 0.59 µg/mL | 1,124 | 663 µg/mL | – | –

Substance | EC50 (HIV [1]) | S.I. (CC50/EC50) (HIV [1]) | CC50 (MT-4 cells; [3]) | CC50 (MT-4 cells; [4]) | other results
Sulfated dl-α-tocopheryl O-n-butyryl-β-D-laminaripentaoside [Compound 31] | 1.1 µg/mL | 195 | – | 214 µg/mL | –
Sulfated dl-α-tocopheryl O-n-butyryl-β-D-laminaripentaoside [Compound 32] | 6.4 µg/mL | 18 | – | 115 µg/mL | –
Sulfated dl-α-tocopheryl O-n-docosanoyl-β-D-laminaripentaoside [Compound 40] | 20.6 µg/mL | 27 | 546 µg/mL | – | –
Sulfated dl-α-tocopheryl O-n-dodecanoyl-β-D-laminaripentaoside [Compound 36] | 3.9 µg/mL | 83 | – | 323 µg/mL | –
Sulfated dl-α-tocopheryl O-n-dodecanoyl-β-D-laminaripentaoside [Compound 37] | 25.1 µg/mL | 3 | – | 77.4 µg/mL | –
Sulfated dl-α-tocopheryl O-n-dodecanoyl-β-D-laminaripentaoside [Compound 38] | 18.7 µg/mL | 4 | – | 81.1 µg/mL | –
Sulfated dl-α-tocopheryl O-n-dodecanoyl-β-D-laminaripentaoside [Compound 39] | 15.3 µg/mL | 38 | – | 586 µg/mL | –
Sulfated dl-α-tocopheryl O-n-octanoyl-β-D-laminaripentaoside [Compound 33] | 0.64 µg/mL | 998 | – | 639 µg/mL | –
Sulfated dl-α-tocopheryl O-n-octanoyl-β-D-laminaripentaoside [Compound 34] | 16.0 µg/mL | 30 | – | 472 µg/mL | –
Sulfated dl-α-tocopheryl O-n-octanoyl-β-D-laminaripentaoside [Compound 35] | 20.2 µg/mL | 26 | – | 519 µg/mL | –
Sulfated n-dodecyl O-2,4-difluorobenzoyl-β-D-laminaripentaoside [Compound 6] | 1.8 µg/mL | > 556 | > 1,000 μg/ml | – | reciprocal number of concentration of the compound at 50% cell viability (HIV [2]; 1 hour after i.v. injection): 145; reciprocal number of concentration of the compound at 50% cell viability (HIV [2]; 4 hours after i.v. injection): 94; reciprocal number of concentration of the compound at 50% cell viability (HIV [2]; 6 hours after i.v. injection): 60; reciprocal number of concentration of the compound at 50% cell viability (HIV [2]; 12 hours after i.v. injection): 48; detection/duration of activity in serum (HIV [2]; mouse, i.v., Compound 6 32 mg/kg up to 12 hours, dextran sulfate 80 mg/kg up to 60 min): detected at a high concentration; comparing strength of effects on blood clotting (rabbit blood; at the concentration of more than 0.1%): dextran sulfate>1>6; clotting time (rabbit blood; 0.01%): 7.4 ± 0.6 min; clotting time (rabbit blood; 0.1%): 7.4 ± 0.6 min; clotting time (rabbit blood; 1.0%): 21.1 ± 1.7 min
Sulfated n-dodecyl O-2,4-difluorobenzoyl-β-D-laminaripentaoside [Compound 7] | 2.1 µg/mL | > 476 | > 1,000 μg/ml | – | –
Sulfated n-dodecyl O-4-fluorobenzoyl-β-D-laminaripentaoside [Compound 3] | 2.0 µg/mL | 482 | – | – | CC50 (MT-4 cells; human, mt-4 cells, 120 h): 964 µg/mL
Sulfated n-dodecyl O-4-fluorobenzoyl-β-D-laminaripentaoside [Compound 4] | 1.7 µg/mL | 509 | – | 866 µg/mL | –
Sulfated n-dodecyl O-4-fluorobenzoyl-β-D-laminaripentaoside [Compound 5] | 1.3 µg/mL | 758 | – | 986 µg/mL | –
Sulfated n-dodecyl O-benzoyl-β-D-laminaripentaoside [Compound 2] | 0.4 µg/mL | > 2,500 | – | > 1,000 μg/ml | –
